How the values were obtained:
Chinese white rabbits = experiment: Autologous blood clot pulmonary embolization, thrombus propagation; format: in vivo, rabbit; settings: 20 mg/kg topically, after 2 days
Experimental: Eighteen Chinese White rabbits weighing between 3.0 and 3.5 kg (aged 6-7 months) were selected and divided into three groups (control, P-1 and […] groups, n=6). One hour before the experiment, thrombi were made by aspirating venous blood (1 ml) into a sterilized bottle to clot. To avoid fragmentation and slow lysis, the autologous blood clots were stabilized in temperature-controlled (70° C.) distilled water for 10 min. After anesthesia, the femoral veins were exposed and distally isolated, and autologous blood clots (0.05 g/kg) were injected through an indwelling catheter (20 GA), which had been placed in the femoral vein isolated earlier. 50% acetone solution of diethylaminoethyl acetylsalicylate.acetylsalicylic acid salt (P-1, in acetone, 20 mg/kg) and diethylaminoethyl acetylsalicylsalicylate. acetylsalicylsalicylic acid salt (P-59, 20 mg/kg) were topically applied to the back of the rabbits. After 2 days, rabbits were euthanized with an excessive intravenous injection of sodium amobarbital (60 mg/kg). The lungs and hearts were isolated to observe whether thrombi were present in the pulmonary arteries. The lungs were immersed in 10% formalin for 24 h. Consecutive transverse sections along the obstructed pulmonary arteries were paraffin-embedded and stained with hematoxylin-eosine. […]

[1] = system: rats (SLAC/GK, type 2 diabetes); experiment: Blood lipid in type 2 diabetes rats, transdermal; format: in vivo, rat
Outline: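 GK type 2 diabetic rats (n=7) received the HPPs transdermally on a shaved ~1.5 cm^2 area of the back, at a dose equal to 20 mg/kg of NSAIAs, once daily for 5 weeks. Non-fasting blood glucose was measured every 3 days at 3 pm from week 2 to week 5, and blood lipids at the end of week 5.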

mice (MRL/LPR) = experiment: Anti-lupus erythematosus activity; format: in vivo, mouse; settings: 30 mg/kg topically twice per day, after 6 weeks
normal rats = experiment: Blood glucose in normal rats, oral with food; format: in vivo, rat
[2] = system: rats (SLAC/GK, type 2 diabetes); experiment: Blood glucose in type 2 diabetes rats, oral with food; format: in vivo, rat
Outline: (§1)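 Compounds (dosed equivalent to 20 mg/kg of NSAIAs) mixed in food and given orally daily for 5 weeks to rats (n=7). Non-fasting blood glucose measured every 3 days at 3 pm from week 2 to week 5; blood lipids measured at end of week 5.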

[3] = system: Human colon cancer cells (LS174J); experiment: Human colon cancer xenograft in nude mice, topical; settings: day 30, about 30 μl of 5% solution (1.5 mg) topically applied
Description: Human colon cancer cells (LS174J, 2-3 mm^3 of tumor tissue was used in each mouse) are subcutaneously xenografted into the front leg of nude mice (BALB).

[4] = system: Human breast cancer cells (BCAP-37); experiment: Human breast cancer xenograft in nude mice, topical; settings: day 42; 30 μl of 5% (1.5 mg) topically every 8 hours from day 14; control 800 ± 100
Outline: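 BCAP-37 tumour tissue (2-3 mm^3) was xenografted subcutaneously into the front leg of nude BALB mice, 7 per group. Compounds were applied topically as 30 μl of 5% solution (1.5 mg) in acetone or water.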

[5] = system: rats (SLAC/GK, type 2 diabetes); experiment: Blood lipid in type 2 diabetes rats, oral with food; format: in vivo, rat
Outline: as §1

[6] = baseline, equal to 20 mg/kg of NSAIAs
[7] = end of the fifth week, equal to 20 mg/kg of NSAIAs once per day
[8] = end of the fifth week, equal to 20 mg/kg of NSAIAs every day

## CC(=O)Oc1ccccc1C(=O)O.CCN(CC)CCOC(=O)c1ccccc1OC(C)=O [P-1, diethylaminoethyl acetylsalicylate.acetylsalicylic acid salt]
Chinese white rabbits
  lung tissue and vascular walls (thrombus propagation): both lung tissue and vascular walls were normal
[1]; [6]
  Cholesterol (HDL), Baseline: 1.4 ± 0.2 mmol/L
  Cholesterol (total), Baseline: 7.7 ± 0.4 mmol/L
  Triglycerides, Baseline: 5.4 ± 0.5 mmol/L
[1]; [7]
  Cholesterol (HDL), Average: 1.5 ± 0.2 mmol/L
  Cholesterol (total), Average: 4.0 ± 0.3 mmol/L
  Triglycerides, Average: 1.5 ± 0.2 mmol/L
Mice (MRL/LPR)
  skin lesions and lupus nephritis: all skin lesions and lupus nephritis were resolved
Normal rats; average second to fifth week, equal to 20 mg/kg of NSAIAs every day
  Blood glucose, Normal rats, Average: 6.5 ± 1 mmol/L
Normal rats; [6]
  Blood glucose, Normal rats, Baseline: 6.3 ± 1 mmol/L
[2]; average second to fifth week, no fasting, equal to 20 mg/kg of NSAIAs every day for 5 weeks
  Blood glucose, Diabetic rats, Average: 6.5 ± 1 mmol/L
[2]; [6]
  Blood glucose, Diabetic rats, Baseline: 16.5 ± 3 mmol/L
[3]
  Tumor size: 420 ± 100 mm^3
[4]
  Tumor size: 150 ± 50 mm^3
[5]; [6]
  Cholesterol (HDL), Baseline: 1.5 ± 0.2 mmol/L
  Cholesterol (total), Baseline: 7.6 ± 0.4 mmol/L
  Triglycerides, Baseline: 5.7 ± 0.5 mmol/L
[5]; [8]
  Cholesterol (HDL), Average: 1.6 ± 0.2 mmol/L
  Cholesterol (total), Average: 4.1 ± 0.3 mmol/L
  Triglycerides, Average: 1.4 ± 0.2 mmol/L

From patent US20210353579A1, “HIGH PENETRATION COMPOSITIONS AND USES THEREOF” (Techfields Pharma Co., Ltd., priority 2006, published 2021)
